From patent publication US9023861B2, “Anticancer combination of artemisinin-based drugs and other chemotherapeutic agents” (Sigma-Tau Industrie Farmaceutiche Riunite, S.p.A., priority 2009, dated 2015)
Each block holds one compound with its values, some of them ahead of it.

Key:
[1] = tested on: NCI-H460; assay: Synergistic interaction with DHA, combination index (Chou-Talalay, SRB); assay type: cell-based; conditions: drug in combination with DHA (1.0-20 μM), DHA 2 h before, drug 72 h
Description: (§1) Tumour cells were treated for 2 h with DHA prior to exposure to further chemotherapeutic agents for 72 h. Cell survival was then evaluated through sulphorodamine B test. Data gathered from the various combination experiments were analyzed using Calcusyn software (Biosoft, Ferguson, Mo.) through the elaboration of isobolograms to determine if the combinations of DHA and the various chemotherapeutic agents were additive, synergistic or antagonistic.

[2] = tested on: LoVo; assay: Anti-proliferative activity, sulphorodamine B test; assay type: cell-based; conditions: Homo sapiens, 24 h exposure, 48 h recovery
Description: (§2) The biological activity of DHA and ART on tumour cells survival was evaluated. The latter were seeded in 96-well tissue culture plates at approximately 10% confluence and were allowed to attach and recover for at least 24 h before being exposed to DHA or ART for 24 h at 37° C. They were then washed to remove DHA and ART and left to recover for 48 hours in medium culture. The medium culture was then removed and cells were washed three times with PBS. The plates were then incubated for on ice for 1 hour with 200 μl of PBS and 50 μl of cold 80% TCA before being washed with distilled water, dried on paper and finally at 40° C. for 5 minutes. 200 μl of 0.4% sulphorodamine B in 1% acetic acid were added and the incubation was prolonged for 30 minutes. Sulphorodamine B was removed, and the plates were washed 3 times with 1% acetic acid. They were finally dried on paper followed by standing at 40° C. for 5 minutes. Then 200 μl Tris 10 mM were added, the plates were kept under stirring for 20 minutes. Cell survival was determined as optical density at 540 nm by means of a Multiskan spectrofluorimeter. The amount of cells killed was expressed as the percentage decrease in sulphorodamine B binding compared to control cultures. IC50 were generated with their standard deviations by the ALLFIT program.

[3] = tested on: MCF-7/Dx MDR; assay: Anti-proliferative activity, sulphorodamine B test; assay type: cell-based
Description: as §2

[4] = tested on: LoVo/Dx MDR; assay: Anti-proliferative activity, sulphorodamine B test; assay type: cell-based
Description: as §2

[5] = tested on: MCF-7; assay: Anti-proliferative activity, sulphorodamine B test; assay type: cell-based; conditions: Homo sapiens, MCF7, 24 h exposure, 48 h recovery
Description: as §2

[6] = tested on: HCT116; assay: Anti-proliferative activity, sulphorodamine B test; assay type: cell-based; conditions: Homo sapiens, HCT-116, 24 h exposure, 48 h recovery
Description: as §2

[7] = tested on: CAPAN-1; assay: Synergistic interaction with DHA, combination index (Chou-Talalay, SRB); assay type: cell-based; conditions: drug in combination with DHA (1.0-20 μM), DHA 2 h before, drug 72 h
Description: as §1

[8] = tested on: A431; assay: as above; assay type: cell-based; conditions: drug in combination with DHA (1.0-20 μM), DHA 2 h before, drug 72 h
Description: as §1

[9] = tested on: MDA-MB436; assay: as above; assay type: cell-based; conditions: drug in combination with DHA (1.0-20 μM), DHA 2 h before, drug 72 h
Description: as §1

[10] = tested on: HCT116; assay: as above; assay type: cell-based; conditions: drug in combination with DHA (1.0-20 μM), DHA 2 h before, drug 72 h
Description: as §1

[11] = tested on: HCT116 colon cancer cells; assay: In vivo antitumour activity, s.c. xenograft in CD1 nude mice; conditions: DHA 200 mg/kg p.o., AZD2281 100 mg/kg i.p., qdx5/wx4w; for antitumor effect when given singularly / tolerability (body weight loss during the treatment): HCT116 xenograft mice, ABT-888 50 mg/kg; for BWL %: body weight loss; for BWL % / TVI % / TV ± SE: HCT116 xenograft, CD1 nude mice, ABT-888 50 mg/kg i.p.; for TVI %: tumour volume inhibition; for TV ± SE: tumour volume, evaluated at about 500 mm^3
Description: HCT116 colon cancer cells were inoculated subcutaneously (s.c.) in the right flank of CD1 nude mice (5×10^6/0.1 ml of Medium 199). Treatments started three days after tumour injection. Mice were subdivided (8 mice/group) in the following experimental groups:
(§3) a) Vehicle (DMSO 10%) 10 ml/kg, i.p.;
b) DHA 200 mg/kg, p.o. qdx5/wx4w;
d) AZD2281+DHA (doses and schedules as above);
e) ABT-888 50 mg/kg, i.p. qdx5/wx4w;
f) ABT-888+DHA (doses and schedules as above).
DHA was administered immediately before AZD2281 or ABT-888.
The antitumour activity was evaluated according to the protocol reported hereinabove in example 3 when tumours reached a volume of about 500 mm^3.
Body weight recording was carried out to evaluate body weight loss according to the protocol reported hereinabove in example 3.

[12] = tested on: A2780; assay: Synergistic interaction with DHA, combination index (Chou-Talalay, SRB); assay type: cell-based; conditions: drug in combination with DHA (1.0-20 μM), DHA 2 h before, drug 72 h
Description: (§4) Tumour cells were grown in RPMI 1640 containing 10% foetal bovine serum and treated as described in example 1 with the exception that instead of being exposed only to ART or DHA, the cell lines were treated with the drugs reported in table 2 in combination with DHA (from 1.0 μM to 20 μM, table 2). Tumour cells were treated for 2 h with DHA prior to exposure to further chemotherapeutic agents for 72 h. Cell survival was then evaluated through sulphorodamine B test. Data gathered from the various combination experiments were analyzed using Calcusyn software (Biosoft, Ferguson, Mo.) through the elaboration of isobolograms to determine if the combinations of DHA and the various chemotherapeutic agents were additive, synergistic or antagonistic. Viability assay results (SRB) were expressed as the fraction of cells killed when exposed to a single drug or to a drug combination with respect to the untreated cells. A combination index value (CI) was determined by means of the Chou-Talalay median effect method (T-C Chou, et al., Trends Pharmacol. Sci., 1983, 4, 450), wherein synergism can be defined when CI<1 and the lower the CI parameter value, the stronger the synergism (as defined by CalcuSyn 2.0 analyzer).

[13] = tested on: SW620; assay: as above; assay type: cell-based; conditions: drug in combination with DHA (1.0-20 μM), DHA 2 h before, drug 72 h
Description: as §4

[14] = tested on: A2780/DDP; assay: as above; assay type: cell-based; conditions: drug in combination with DHA (1.0-20 μM), DHA 2 h before, drug 72 h
Description: as §4

[15] = tested on: NCI-H460 non-small cell lung carcinoma; assay: In vivo antitumor activity, s.c. xenograft in CD1 nude mice; conditions: DHA 200 mg/kg p.o., AZD2281 100 mg/kg i.p., qdx5/wx3w
Description: NCI-H460 non-small cell lung carcinoma cells were inoculated subcutaneously (s.c.) in the right flank of CD1 nude mice (3×10^6/0.1 ml of Medium 199). Treatments started three days after tumour injection. Mice were subdivided (10 mice/group) in the following experimental groups:
as §3
b) DHA 200 mg/kg, p.o. qdx5/wx3w;
d) AZD2281+DHA (doses and schedules as above).
For the latter experiment DHA was administered immediately before AZD2281.
To evaluate the antitumour activity, tumour diameters were measured with a Vernier calliper according to the formula TV=d^2×D/2 where d and D are the shortest and longest diameters, respectively.
When tumours reached a volume of about 1500 mm^3, mice were sacrificed by cervical dislocation. The efficacy of the drug was assessed as the tumour volume inhibition according to the formula reported underneath: […]
Body weight recording was carried out to evaluate body weight loss as calculated in the equation underneath: […]
Wherein BW day x corresponds to the mean weight at day x of the experiment meanwhile BW day 1 corresponds to the mean weight at the first day of the experiment.

SMILES: NC(=O)c1cccc2cn(-c3ccc([C@@H]4CCCNC4)cc3)nc12 [MK-4827]
- Combination index values ED50 [1]: 0.83
- Combination index values ED75 [1]: 0.83
- Combination index values ED90 [1]: 0.84

- IC50 [2]: > 200 µM
- IC50 ([3]; MCF7/DX, MCF-7/Dx MDR, 24 h exposure, 48 h recovery): 187 ± 70 µM
- IC50 ([4]; LoVo/Dx MDR, 24 h exposure, 48 h recovery): > 200 µM
- IC50 [5]: 45.8 ± 11.5 µM
- IC50 [6]: 257 ± 28.8 µM
SMILES: C[C@@H]1CC[C@H]2[C@@H](C)C(=O)O[C@@H]3O[C@@]4(C)CC[C@@H]1[C@]32OO4 [ART, artemisinin]
- resistance index ([3]; MCF-7/Dx MDR versus MCF-7): 4

SMILES: C[C@]1(c2nc3c(C(N)=O)cccc3[nH]2)CCCN1 [ABT-888]
- Combination index values ED50 [7]: 0.59
- Combination index values ED75 [7]: 0.32
- Combination index values ED90 [7]: 0.22
- Combination index values ED50 [8]: 0.45
- Combination index values ED75 [8]: 0.49
- Combination index values ED90 [8]: 0.37
- Combination index values ED50 [1]: 0.78
- Combination index values ED75 [1]: 0.61
- Combination index values ED90 [1]: 0.49
- Combination index values ED50 [9]: 0.42
- Combination index values ED75 [9]: 0.43
- Combination index values ED90 [9]: 0.47
- Combination index values ED50 [10]: 0.66
- Combination index values ED75 [10]: 0.66
- Combination index values ED90 [10]: 0.66
- antitumor effect when given singularly [11]: None of them when given singularly did show any antitumor effect
- tolerability (body weight loss during the treatment) [11]: well-tolerated
- BWL % [11]: 0%
- TVI % [11]: 2%
- TV ± SE [11]: 395 ± 56

SMILES: CCc1c2c(nc3ccc(O)cc13)-c1cc3c(c(=O)n1C2)COC(=O)[C@]3(O)CC [SN-38]
- Combination index values ED50 [1]: 0.81
- Combination index values ED75 [1]: 0.68
- Combination index values ED90 [1]: 0.59

SMILES: CC[C@@]1(O)C(=O)OCc2c1cc1n(c2=O)Cc2c-1nc1ccccc1c2/C=N\OCCN [7-(2-amino)-ethoxyiminomethyl-camptothecin]
- Combination index values ED50 [1]: 0.39
- Combination index values ED75 [1]: 0.24
- Combination index values ED90 [1]: 0.16

SMILES: N.N.O=C([O-])C1(C(=O)[O-])CCC1.[Pt+2] [Carboplatin, carboplatin]
- Combination index values ED50 [1]: 0.53
- Combination index values ED75 [1]: 0.71
- Combination index values ED90 [1]: 0.95

SMILES: N.N.[Cl][Pt][Cl] [Cisplatin, cisplatin]
- Combination index values ED50 [1]: 0.79
- Combination index values ED75 [1]: 0.88
- Combination index values ED90 [1]: 0.98

SMILES: COc1cccc2c1C(=O)c1c(O)c3c(c(O)c1C2=O)C[C@@](O)(C(=O)CO)C[C@@H]3O[C@H]1C[C@H](N)[C@H](O)[C@H](C)O1 [Doxorubicin, doxorubicin]
- resistance index ([4]; LoVo/Dx MDR versus LoVo): 63
- Combination index values ED50 [1]: 0.76
- Combination index values ED75 [1]: 0.53
- Combination index values ED90 [1]: 0.37

SMILES: O=c1[nH]c2ccccc2c2ccccc12 [Phenanthridinone]
- Combination index values ED50 [1]: 0.19
- Combination index values ED75 [1]: 0.20
- Combination index values ED90 [1]: 0.22
- Combination index values ED50 [12]: 0.003
- Combination index values ED75 [12]: 0.05
- Combination index values ED90 [12]: 0.67

SMILES: O=C(c1cc(Cc2n[nH]c(=O)c3ccccc23)ccc1F)N1CCN(C(=O)C2CC2)CC1 [AZD2281]
- Combination index values ED50 [7]: 0.35
- Combination index values ED75 [7]: 0.49
- Combination index values ED90 [7]: 0.73
- Combination index values ED50 [8]: 0.37
- Combination index values ED75 [8]: 0.02
- Combination index values ED90 [8]: 0.02
- Combination index values ED50 [1]: 0.62
- Combination index values ED75 [1]: 0.48
- Combination index values ED90 [1]: 0.42
- Combination index values ED50 [9]: 0.28
- Combination index values ED75 [9]: 0.30
- Combination index values ED90 [9]: 0.68
- Combination index values ED50 [10]: 0.36
- Combination index values ED75 [10]: 0.34
- Combination index values ED90 [10]: 0.31
- Combination index values ED50 [13]: 0.60
- Combination index values ED75 [13]: 0.55
- Combination index values ED90 [13]: 0.66
- Combination index values ED50 [14]: 0.63
- Combination index values ED75 [14]: 0.68
- Combination index values ED90 [14]: 0.63
- antitumor effect when given singularly ([15]; NCI-H460 xenograft mice): no antitumor effect
- tolerability (body weight loss during the treatment) ([15]; NCI-H460 xenograft mice): well-tolerated
- BWL % ([15]; body weight loss, NCI-H460 xenograft, CD1 nude mice): 1%
- TVI % ([15]; tumour volume inhibition, NCI-H460 xenograft, CD1 nude mice): 1%
- TV ± SE ([15]; tumour volume, NCI-H460 xenograft, CD1 nude mice, sacrifice at about 1500 mm^3): 1603 ± 171
- antitumor effect when given singularly [11]: None of them when given singularly did show any antitumor effect
- tolerability (body weight loss during the treatment) [11]: well-tolerated
- BWL % [11]: 1%
- TVI % [11]: 18%
- TV ± SE [11]: 328 ± 52
